The values below come from patent publication US20210244735A1, “COMPOSITIONS AND METHODS FOR TREATING MYELOFIBROSIS” (Impact Biomedicines, Inc., priority 2010, published 2021).

Structures can show the parent of a compound that is named as a salt.

The nature of data set [1]: Phase 1 study: plasma pharmacokinetics, non-compartmental analysis. Type of data set: in vivo, human. How it is done:
Pharmacokinetics: The concentration—time curves of TG101348 in plasma were evaluated by a non-compartmental analysis (with the use of WinNonlin® software, version 5.2).

In a further data set the test system is JAK2V617F allele burden. Description: Phase 1 study: JAK2V617F allele burden in granulocyte fraction of peripheral blood. Type of data set: in vivo, human. Here is the method:
Responses were measured every 4 weeks per International Working Group for MPN Research and Treatment (IWG-MRT) criteria (Tefferi A et al., Blood 108:1497-1503, 2006). Assessment of bone marrow histology was performed at baseline and every 24 weeks of therapy. Changes in JAK2V 617F allele burden in the granulocyte fraction of peripheral blood were measured as previously described (Kittur J et al., Cancer 109:2279-2284, 2007); the assessments were at baseline and every 4 weeks during the first 6 cycles, and every 6th cycle of therapy in the extension study.

Data set [2] can be described thus: Compatibility with capsule shells, accelerated stability. As to conditions: 250 mg filled capsules, 40° C./75% RH and 25° C./60% RH, t=1, 2, and 3 weeks. Type of data set: physicochemical. Here is the method:
Hard gelatin and hydroxypropylmethyl cellulose (HPMC) capsule shells (size […]) were filled with 250 mg of TG101348 di-HCl monohydrate. The filled capsules were placed on accelerated stability (40° C./75% relative humidity (RH) and 25° C./60% RH). The capsules were packaged into 30 mL (1 oz) amber high density polyethylene (HDPE) bottles.

A further data set has as its system human caco-2 cells. Description: caco-2 permeability. The format is in vitro ADME. As to conditions: caco-2 permeability data.
Data set [3] can be described thus: Bioavailability in multiple species. To be noted: in vivo, oral.
Where [4] appears, read: mean, 240 mg/day (n=3), Cycle 1 Day 28.
Where [5] appears, read: mean, 360 mg/day (n=3), Cycle 1 Day 28.
The mark [6] stands for this setting: mean, 800 mg/day (n=5), Cycle 1 Day 28.

In the case of `Cc1cnc(Nc2ccc(OCCN3CCCC3)cc2)nc1Nc1cccc(S(=O)(=O)NC(C)(C)C)c1` [TG101348, N-tert-butyl-3-[(5-methyl-2-{[4-(2-pyrrolidin-1-ylethoxy)phenyl]amino}pyrimidin-4-yl)amino]benzenesulfonamide dihydrochloride monohydrate], the “plasma concentration over at least 24 hours after the dose” value in data set [1] (360 mg/day, Cycle 1 Day 28) was “above IC90”; in data set [1] (520 mg/day, Cycle 1 Day 28) it was “above 3×IC90”. Also, in data set [1] (in vivo), the “increase of mean steady-state AUC0-t over a 27-fold increase in dose” value was around 88 fold. In addition, the “increase of mean steady-state C. over a 27-fold increase in dose” value in data set [1] (in vivo) is given as “approximately 54 fold”. The “λz (elimination rate constant)” value in data set [1] (mean, 30 mg/day (n=3), Cycle 1 Day 28) was 0.0354 h⁻¹; in data set [1] (mean, 60 mg/day (n=3), Cycle 1 Day 28) it was 0.0456 h⁻¹; in data set [1] (mean, 120 mg/day (n=3), Cycle 1 Day 28), 0.0305 h⁻¹; in data set [1] (setting [4]) it was 0.0352 h⁻¹; in data set [1] (setting [5]), 0.0353 h⁻¹; in data set [1] (mean, 520 mg/day (n=3), Cycle 1 Day 28), 0.0343 h⁻¹. The “λz (elimination rate constant)” value in data set [1] (mean, 680 mg/day (n=27), Cycle 1 Day 28) amounted to 0.0301 h⁻¹; in data set [1] (setting [6]), 0.0331 h⁻¹. Also, the “T1/2 (terminal half-life)” value in data set [1] (setting [4]) came to 20.77 h; in data set [1] (setting [5]), 21.39 h; in data set [1] (setting [6]) it was 23.99 h. The same compound gave a peak concentration (Cmax) in data set [1] (setting [5]) of 1717.33 ng/mL. In addition, in the data set on JAK2V617F allele burden (48 evaluable VF-positive patients, last available follow-up), the “patients with ≥50% reduction in VF allele burden” value is reported as 21 (44%) patients (%). Besides, in the data set with JAK2V617F allele burden (baseline >20%, 18 subjects who completed 12 cycles), the “subjects with ≥50% decrease in JAK2V617F” value is 7 (39%) subjects (%). Also, the “JAK2V617F allele burden compared to pre-study baseline” value with JAK2V617F allele burden (end of cycle 6 and cycle 12, Wilcoxon matched-pair signed-rank test) is “significant decrease”. Also, in data set [2], the “changes in attributes (appearance, assay, impurities) in capsule shells” value is reported as “No appreciable changes”. Further, the permeability result in the data set on human caco-2 cells was “on the borderline between “low” and “high” permeability”. In data set [3], the bioavailability fell in the range of 20 to 25%.
